The values that follow come from article PMC9782877 (Molecules, 2022).

Several values for one entry are separate records, joined by “and”; a condition that tells them apart may be missing. Equal values may be shown once.

One data set is described as follows: Human plasma stability. The settings on record: 100 µM. Format: in vitro ADME. As for the experimental part:
Finally, further studies were performed in order to investigate the stability in the presence of human plasma. All compounds were incubated at the fixed concentration of 100 µM in plasma for 24 h.
A DMSO stock solution of each compound was incubated in triplicate in the presence of human plasma and HEPES buffer (25 mM, 140 mM NaCl, pH 7.4) at the final concentration of 100 µM at 37 °C under shaking. At the selected time point of 0 and 24 h, 50 µL of the mixture was collected, treated with 1.0 mL of cold ACN, and centrifuged at 5000 rpm for 10 min. The supernatant was collected, and the amount of unmodified compound was quantified with the HLPC-UV/MS method above reported. Calculations of modified compounds were made using time zero as 100% of the unmodified compound.

For the next data set, the target named is human helicase DDX3X (Homo sapiens, UniProt O00571). The data set can be described thus: DDX3X ATPase inhibition, ADP-Glo assay. In kind it is biochemical. As to the method: For the more promising compound, derivative 10a, the inhibition of the ATPase activity of the human helicase DDX3X was evaluated. Different concentrations of the compound were incubated with 1 µM of purified recombinant DDX3X and ATPase activity was determined with the ADP-glo assay.
Sequence of human helicase DDX3X (O00571 whole entry): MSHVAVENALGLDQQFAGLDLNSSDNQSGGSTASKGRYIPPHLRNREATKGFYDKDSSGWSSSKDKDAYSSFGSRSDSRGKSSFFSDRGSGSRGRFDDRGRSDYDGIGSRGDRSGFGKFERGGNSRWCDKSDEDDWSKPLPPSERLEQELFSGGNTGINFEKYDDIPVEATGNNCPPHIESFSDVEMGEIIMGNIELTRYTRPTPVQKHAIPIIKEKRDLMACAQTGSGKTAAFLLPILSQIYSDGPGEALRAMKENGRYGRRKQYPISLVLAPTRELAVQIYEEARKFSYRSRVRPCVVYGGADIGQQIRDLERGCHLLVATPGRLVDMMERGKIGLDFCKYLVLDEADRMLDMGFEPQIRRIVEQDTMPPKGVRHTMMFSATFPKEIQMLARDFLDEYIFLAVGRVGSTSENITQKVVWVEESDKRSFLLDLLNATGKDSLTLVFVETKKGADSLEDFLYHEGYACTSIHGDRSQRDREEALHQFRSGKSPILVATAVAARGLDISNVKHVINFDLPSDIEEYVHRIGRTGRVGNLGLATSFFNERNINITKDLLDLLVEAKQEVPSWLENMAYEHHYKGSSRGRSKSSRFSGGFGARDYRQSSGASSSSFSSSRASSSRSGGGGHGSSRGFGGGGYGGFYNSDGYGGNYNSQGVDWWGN
The ATPase enzymatic activity of DDX3X was determined by the ADP-Glo kit (Promega, MD, USA). The reaction was performed in ATPase buffer (20 mM Tris–HCl pH 8, 2 mM DTT, 70 mM KCl, 2 mM MgCl2, 5% DMSO) pre-incubating 1 µM DDX3X with different concentrations of inhibitor for 10 min at 25 °C. ATPase reaction started with the addition of 1 mM ATP. After 30 min of incubation at 25 °C, the assay was conducted following the manufacturer’s instructions. The ATPase enzymatic activity was analyzed using a 384-wells plate and the GloMax Discover Microplate Reader (Promega, MD, USA) and expressed as a percentage of inhibition calculated from the light units obtained.

Data set [1] is described as follows: Parallel artificial membrane permeability assay (PAMPA). In kind it is in vitro ADME. The settings on record: pH 7.4, 5 h; for Papp at 5 h, 0.5 mM: room temperature, read-out: Apparent Permeability (Papp). As for the experimental part: The trend appreciated in terms of solubility was confirmed by results obtained from permeability studies. In fact, parallel artificial membrane permeability assay (PAMPA) underlined how the low solubility of compounds 6 and 7 was accompanied by a major tendency of these derivatives to interact with the lipidic artificial membrane where they probably remained entrapped.
In order to assess the apparent permeability of selected compounds, a stock solution in DMSO of each derivative was prepared at the final concentration of 1 mM. By diluting the stocks 1:1 v/v with phosphate buffer (PBS 25 mM, pH 7.4), donor solutions were made. To mimic the gastrointestinal (GI) phospholipidic bilayer, 10 µL of a 1% w/v dodecane solution of phosphatidylcholine (PC) was used to coat filters. The acceptor solution, made of 1:1 v/v DMSO/PBS, was added to each well (300 µL), while the donor solution (150 µL) was added to each well of the filter plate. The sandwich plates were assembled and incubated for 5 h at room temperature. At the time point, the plates were separated, and the amount of compound passed through the phospholipid bilayer was measured by UV/LC-MS. Finally, apparent permeability (Papp) and membrane retention (MR%) were calculated as previously reported by us.
Background: PAMPA measures passive passage across an artificial lipid membrane.

Data set [2] is described as follows: Aqueous solubility in Mill-Q H2O. The settings on record: water, thermodynamic from solid.
Method: Chromatographic separations were obtained using a Phenomenex Kinetex C18-100 Å column (150 × 4.6 mm) with 5 µm particle size and gradient elution with a binary solution; (eluent A: H2O acidified with formic acid (FA) 0.1% v/v, eluent B: ACN/MeOH 1:1 v/v) at room temperature. The analysis started with 5% of B (from t = 0 to t = 1 min), then B was increased to 95% (from t = 1 to t = 10 min), then kept at 95% (from t = 10 to t = 15 min) and finally returned to 5% of eluent A in one minute. The instrument worked in positive mode and the UV detector operated at 254 nm.
One mg of each compound was added with 1 mL of Mill-Q H2O. The samples were maintained under shaking at room temperature (RT) overnight. The suspensions were filtered using a 0.45 µm nylon filter (Acrodisc), and the amount of solubilized compound was determined with the HPLC-UV-MS method above reported. The quantification of the solubilized compound was created with the appropriate calibration curve realized with stock solutions in DMSO (0.1–100 µg/mL); the limit of detection (LOD) was quantified at 0.1 µg/mL.
Another data set has as its system SARS-CoV-2. The data set can be described thus: microbe, parasite or virus in culture. The conditions noted are these: for SI, Selectivity Index (ratio between CC50 and IC50): Caco-2 cells, SARS-CoV-2; for IC50: Severe acute respiratory syndrome coronavirus 2, Caco-2, 72 h, read-out: IC50, half-maximal compound concentration inhibiting 50% of the SARS-CoV-2 replication. Format: cell-based.

Data set [3] in a line: in vitro. The settings on record: human.
Data set [4] relates to HIV-1 wild-type reference strain NL4-3. The data set can be described thus: Anti-HIV-1 BiCycle Assay (H9 cells, then TZM-bl reporter cells). In kind it is cell-based. The conditions noted are these: Human immunodeficiency virus 1, NL43, H9, read-out: IC50, half-maximal compound concentration inhibiting the 50% of HIV-1 replication.
A short description of data set [5]: in vitro. The settings on record: human. The source holds these as a separate data set.
Data set [6] concerns peripheral blood mononuclear cells (PBMC). Also on record: method as in PMID 21698775. The conditions noted are these: read-out: CC50, cytotoxicity; cited from earlier work.
In a further data set the test system is HIV. Set-up: method as in PMID 21698775. The settings on record: PBMC; read-out: EC50, antiretroviral effect; cited from earlier work.

With `Oc1ccccc1/C=N/Nc1nc(N2CCOCC2)nc(N2CCOCC2)n1` [10a], the “Plasma Stability % ± SD” value in “Human plasma stability” (24 h, 37 °C) is listed as 98.48 ± 4.02%. The “Plasma Stability % ± SD” value in the data set “Human plasma stability” (time 0 h (set as 100%)) was determined as 100.00 ± 0.28%. On human helicase DDX3X, this compound returned an IC50 of 6.6 µM. Besides, in data set [1], the “Membrane retention (MR)” value came out at 4.3%; the Papp – broadly, the rate of passage across a membrane or cell layer, normalised by area and donor concentration – at 5 h, 0.5 mM was found to be 7.89 ×10⁻⁶ cm/s. In addition, in data set [2], the solubility (usually the dissolved amount per volume that the medium holds) was 3.23 µg/mL and 8.51 µM. Moreover, in the data set on SARS-CoV-2, the “SI, Selectivity Index (ratio between CC50 and IC50)” value was more than 33.1; the IC50 is 12.1 µM.
In the case of `CC(=O)Nc1ccc(/C=N/Nc2nc(N3CCOCC3)nc(N3CCOCC3)n2)cc1` [10b], in the data set “Human plasma stability” (24 h, 37 °C), the “Plasma Stability % ± SD” value stood at 98.41 ± 4.69%. Further, in “Human plasma stability” (time 0 h (set as 100%)), the “Plasma Stability % ± SD” value is 100.00 ± 0.24%. In addition, in data set [1], the “Membrane retention (MR)” value is reported as 9.8% and the Papp at 5 h, 0.5 mM was determined as 9.7 ×10⁻⁶ cm/s. In data set [2], the solubility is 3.46 µg/mL and 8.13 µM.
In the case of `Cc1cccc(/C=N/Nc2nc(N3CCOCC3)nc(N3CCOCC3)n2)c1` [10c], the “Plasma Stability % ± SD” value turned out to be 99.52 ± 3.45% in “Human plasma stability” (24 h, 37 °C) and 100.00 ± 0.16% in the data set “Human plasma stability” (time 0 h (set as 100%)). The “Membrane retention (MR)” value in [1] worked out at 4.9%. Besides, the Papp at 5 h, 0.5 mM in data set [1] is 9.78 ×10⁻⁶ cm/s. Further, the solubility in data set [2] is 4.5 µg/mL and 11.7 µM. The same compound showed a CC50 in the data set “in vitro [3]” of 74 µM.
Turning to `Cc1nnc(C(=O)NC(C)(C)c2nc(C(=O)NCc3ccc(F)cc3)c(O)c(=O)n2C)o1` [Raltegravir, reference compound], the CC50 in the data set “in vitro [3]” is more than 100 µM. Also, in [4], the IC50 is 2.8 ± 1.7 nM.
`CCC(CC)COC(=O)[C@H](C)N[P@](=O)(OC[C@H]1O[C@@](C#N)(c2ccc3c(N)ncnn23)[C@H](O)[C@@H]1O)Oc1ccccc1` [Remdesivir, reference compound] returned a CC50 in the data set “in vitro [5]” of 94900 nM. Further, in the data set on SARS-CoV-2, the “SI, Selectivity Index (ratio between CC50 and IC50)” value is reported as 1356; the IC50 is 0.07 ± 0.04 µM.
Consider `Oc1ccccc1C=NNc1nc(Nc2ccc(F)cc2)nc(N2CCOCC2)n1` [compound 6], for which the “Plasma Stability % ± SD” value in the data set “Human plasma stability” (24 h, 37 °C) is 98.78 ± 4.05%; in the data set “Human plasma stability” (time 0 h (set as 100%)) it was 100.00 ± 0.19%. Also, in data set [1], the “Membrane retention (MR)” value is 28.7%. Also, the Papp at 5 h, 0.5 mM in data set [1] amounted to 4.74 ×10⁻⁶ cm/s. Besides, the results for the CC50 (in [6]; in “in vitro [5]”) were 10 µM and 3000 nM, respectively. The compound also came in with a solubility in data set [2] of less than 0.1 µg/mL. The EC50 (in general, the concentration that produces a half-maximal response) with HIV is 2500 nM.
Consider `Oc1ccccc1C=NNc1nc(Nc2ccc(F)cc2)nc(Nc2ccc(F)cc2)n1` [compound 7], for which the “Plasma Stability % ± SD” value in the data set “Human plasma stability” (24 h, 37 °C) was 99.56 ± 3.78%; in “Human plasma stability” (time 0 h (set as 100%)) it was 100.00 ± 0.28%. Moreover, in [1], the “Membrane retention (MR)” value came to 15.5%. Also, the Papp at 5 h, 0.5 mM in data set [1] amounted to 4.58 ×10⁻⁶ cm/s. Besides, the CC50 in data set [6] is 8 µM; in the data set “in vitro [5]”, 800 nM. In [2], this compound came in with a solubility of less than 0.1 µg/mL. In addition, in the data set on HIV, the EC50 is 2000 nM.
